Holding throughout (assay): cell-based
The target of one assay is hNav1.7 (Homo sapiens, UniProt Q15858). It counts as cell-based. The conditions noted are these: PatchXpress, read-out: PX hNav1.7 Tonic IC50.
The next assay has as its target hNav1.5 (Homo sapiens, UniProt Q14524). The conditions noted are these: PatchXpress, read-out: PX hNav1.5 Tonic IC50.
A further assay has as its target hNav1.4 (Homo sapiens, UniProt P35499). The conditions noted are these: for pIC50: PatchXpress, read-out: PX hNav1.4 Tonic IC50.
[1] abbreviates: * = at high concentrations compound would wash off slowly or not at all.

Structures are written as SMILES. pIC50: −log10 of the molar value. Read-outs that look alike come from different tables or passages of the source.

For nine compounds, IC50 and Nav1.4/Nav1.7 results are on record in patent US9636418B2 (priority 2013, dated 2017).

hNav1.5, sequence (Q14524 whole entry): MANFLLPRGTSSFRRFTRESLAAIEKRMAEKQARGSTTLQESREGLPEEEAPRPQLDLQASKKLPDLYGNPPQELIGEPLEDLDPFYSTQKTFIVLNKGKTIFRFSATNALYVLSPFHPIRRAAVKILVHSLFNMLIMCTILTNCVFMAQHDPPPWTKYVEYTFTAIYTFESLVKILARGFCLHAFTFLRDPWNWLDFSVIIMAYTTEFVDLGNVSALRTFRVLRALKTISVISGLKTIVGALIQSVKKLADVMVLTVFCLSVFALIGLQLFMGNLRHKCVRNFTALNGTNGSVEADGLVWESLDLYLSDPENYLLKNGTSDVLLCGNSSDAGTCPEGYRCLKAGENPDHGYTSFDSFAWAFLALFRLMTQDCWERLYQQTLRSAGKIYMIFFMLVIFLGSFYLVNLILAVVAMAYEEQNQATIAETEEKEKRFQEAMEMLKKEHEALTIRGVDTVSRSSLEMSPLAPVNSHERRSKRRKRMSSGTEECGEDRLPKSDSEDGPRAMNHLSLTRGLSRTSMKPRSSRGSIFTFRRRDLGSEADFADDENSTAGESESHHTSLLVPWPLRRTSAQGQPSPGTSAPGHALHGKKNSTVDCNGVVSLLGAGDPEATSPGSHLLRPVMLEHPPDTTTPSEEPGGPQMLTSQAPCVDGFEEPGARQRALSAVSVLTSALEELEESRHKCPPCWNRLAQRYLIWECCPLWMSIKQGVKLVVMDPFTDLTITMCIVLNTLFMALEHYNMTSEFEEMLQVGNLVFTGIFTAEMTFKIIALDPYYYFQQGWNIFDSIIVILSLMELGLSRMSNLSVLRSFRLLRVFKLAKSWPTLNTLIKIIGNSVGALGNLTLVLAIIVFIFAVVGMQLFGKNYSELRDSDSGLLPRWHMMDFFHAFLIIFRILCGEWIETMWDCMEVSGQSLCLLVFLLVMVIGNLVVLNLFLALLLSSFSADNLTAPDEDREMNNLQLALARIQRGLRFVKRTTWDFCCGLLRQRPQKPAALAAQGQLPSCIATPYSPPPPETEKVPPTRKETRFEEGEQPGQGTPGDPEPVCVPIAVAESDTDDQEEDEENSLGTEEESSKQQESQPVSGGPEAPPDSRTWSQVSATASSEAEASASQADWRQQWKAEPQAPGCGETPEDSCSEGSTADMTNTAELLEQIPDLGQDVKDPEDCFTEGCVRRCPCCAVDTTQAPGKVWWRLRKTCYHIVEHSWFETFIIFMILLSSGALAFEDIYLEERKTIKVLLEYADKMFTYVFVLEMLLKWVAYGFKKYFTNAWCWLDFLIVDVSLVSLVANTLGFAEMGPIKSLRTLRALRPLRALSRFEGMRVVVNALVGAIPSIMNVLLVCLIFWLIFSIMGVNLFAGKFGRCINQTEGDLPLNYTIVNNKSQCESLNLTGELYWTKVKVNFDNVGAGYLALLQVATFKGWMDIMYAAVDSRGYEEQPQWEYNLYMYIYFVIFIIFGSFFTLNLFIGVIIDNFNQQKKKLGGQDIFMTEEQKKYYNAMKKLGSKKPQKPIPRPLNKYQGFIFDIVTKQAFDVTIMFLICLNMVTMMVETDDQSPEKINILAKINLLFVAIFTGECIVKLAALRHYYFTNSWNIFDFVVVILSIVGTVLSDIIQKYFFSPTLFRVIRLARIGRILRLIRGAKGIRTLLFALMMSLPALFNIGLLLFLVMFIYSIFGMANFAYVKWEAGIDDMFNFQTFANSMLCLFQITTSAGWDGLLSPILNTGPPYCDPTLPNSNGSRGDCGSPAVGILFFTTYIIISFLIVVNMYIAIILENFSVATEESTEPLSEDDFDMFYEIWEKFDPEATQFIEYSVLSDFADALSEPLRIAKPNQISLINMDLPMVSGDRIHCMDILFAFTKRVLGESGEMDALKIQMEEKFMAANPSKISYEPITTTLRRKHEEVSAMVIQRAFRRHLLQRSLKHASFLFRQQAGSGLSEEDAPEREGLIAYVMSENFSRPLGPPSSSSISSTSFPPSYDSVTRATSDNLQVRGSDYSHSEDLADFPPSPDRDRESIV
hNav1.4, sequence (P35499 whole entry): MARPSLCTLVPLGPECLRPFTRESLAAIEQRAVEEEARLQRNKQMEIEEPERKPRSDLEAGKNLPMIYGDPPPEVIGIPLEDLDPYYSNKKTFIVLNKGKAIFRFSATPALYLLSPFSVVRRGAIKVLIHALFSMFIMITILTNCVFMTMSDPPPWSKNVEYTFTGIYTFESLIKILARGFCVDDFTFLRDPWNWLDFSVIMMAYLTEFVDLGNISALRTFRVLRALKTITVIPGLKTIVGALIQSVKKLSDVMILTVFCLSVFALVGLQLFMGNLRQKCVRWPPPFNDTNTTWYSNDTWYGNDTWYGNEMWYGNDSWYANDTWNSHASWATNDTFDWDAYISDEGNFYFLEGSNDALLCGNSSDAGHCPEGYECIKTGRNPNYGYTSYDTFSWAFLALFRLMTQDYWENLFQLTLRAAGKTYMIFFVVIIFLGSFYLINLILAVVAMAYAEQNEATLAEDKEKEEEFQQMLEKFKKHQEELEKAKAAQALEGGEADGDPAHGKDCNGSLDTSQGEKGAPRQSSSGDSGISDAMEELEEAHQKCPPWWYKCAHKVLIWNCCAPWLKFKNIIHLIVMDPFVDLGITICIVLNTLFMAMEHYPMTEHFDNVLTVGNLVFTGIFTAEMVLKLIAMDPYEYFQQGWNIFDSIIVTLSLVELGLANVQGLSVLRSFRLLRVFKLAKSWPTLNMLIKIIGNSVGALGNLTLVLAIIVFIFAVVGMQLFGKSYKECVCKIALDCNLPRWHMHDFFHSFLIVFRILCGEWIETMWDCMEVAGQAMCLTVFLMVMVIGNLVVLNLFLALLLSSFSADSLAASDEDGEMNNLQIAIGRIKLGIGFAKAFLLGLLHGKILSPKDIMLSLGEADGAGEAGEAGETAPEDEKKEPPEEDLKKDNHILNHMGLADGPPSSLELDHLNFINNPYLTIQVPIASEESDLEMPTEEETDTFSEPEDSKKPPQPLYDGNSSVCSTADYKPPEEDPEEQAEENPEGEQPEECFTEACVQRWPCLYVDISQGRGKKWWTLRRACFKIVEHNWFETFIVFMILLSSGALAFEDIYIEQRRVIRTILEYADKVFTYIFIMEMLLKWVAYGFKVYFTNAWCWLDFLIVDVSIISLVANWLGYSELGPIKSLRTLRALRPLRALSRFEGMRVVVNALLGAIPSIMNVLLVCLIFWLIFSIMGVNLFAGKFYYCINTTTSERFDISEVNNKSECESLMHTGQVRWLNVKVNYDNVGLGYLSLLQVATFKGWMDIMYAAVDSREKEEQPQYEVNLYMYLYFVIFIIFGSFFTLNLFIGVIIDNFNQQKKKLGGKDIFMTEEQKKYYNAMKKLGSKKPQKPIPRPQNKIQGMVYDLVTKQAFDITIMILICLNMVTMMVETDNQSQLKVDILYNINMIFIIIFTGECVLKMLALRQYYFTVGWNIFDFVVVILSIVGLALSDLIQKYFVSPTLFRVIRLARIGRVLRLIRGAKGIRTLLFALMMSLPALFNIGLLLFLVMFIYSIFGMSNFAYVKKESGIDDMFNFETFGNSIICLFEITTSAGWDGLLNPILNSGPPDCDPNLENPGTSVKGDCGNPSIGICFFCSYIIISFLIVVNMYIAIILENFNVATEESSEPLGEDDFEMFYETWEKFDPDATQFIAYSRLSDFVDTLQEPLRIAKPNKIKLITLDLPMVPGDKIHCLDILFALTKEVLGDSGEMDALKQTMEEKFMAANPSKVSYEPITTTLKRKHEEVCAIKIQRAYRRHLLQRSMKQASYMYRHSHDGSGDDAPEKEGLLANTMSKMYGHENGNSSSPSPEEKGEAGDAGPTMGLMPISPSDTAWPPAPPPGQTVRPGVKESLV

Broadly, the pIC50 is the negative decadic logarithm of the IC50, by convention in mol/L. As to `C#CC[C@@H]1NC(=O)[C@H](CCCNC(=N)N)NC(=O)[C@H](CCCCN)NC(=O)[C@H](CO)NC(=O)[C@H](CC(=O)O)NC(=O)[C@@H]2CSSC[C@@H]3NC(=O)[C@H](CCC(=O)O)NC(=O)[C@H](CC(C)C)NC(=O)CNC(=O)[C@H](CCC(=O)O)NC(=O)[C@H](CSSC[C@H](NC(=O)[C@@H](N)Cc4ccc(O)cc4)C(=O)N[C@@H](CCC(N)=O)C(=O)N[C@@H](CCCCN)C(=O)N[C@@H](Cc4c[nH]c5ccccc45)C(=O)N[C@@H](CCCC)C(=O)N[C@@H](Cc4c[nH]c5ccccc45)C(=O)N[C@@H]([C@@H](C)O)C(=O)N2)NC(=O)[C@H](CSSC[C@@H](C(=O)N[C@@H](CCCNC(=N)N)C(=O)N[C@@H](CCCCN)C(=O)N[C@@H](Cc2ccc(O)cc2)C(=O)N[C@H](C(N)=O)[C@@H](C)CC)NC(=O)[C@H](Cc2c[nH]c4ccccc24)NC(=O)[C@H](CC(C)C)NC(=O)[C@H](CCCCN)NC3=O)NC1=O` [compound 316], the pIC50 on hNav1.7 (tonic block) is 8.75; on hNav1.5 (tonic block) it was 5.43; on hNav1.4 (tonic block), 6.15.
Take `C#CC[C@@H]1NC(=O)[C@@H]2CSSC[C@H](NC(=O)[C@@H](N)Cc3ccc(O)cc3)C(=O)N[C@@H](CCC(N)=O)C(=O)N[C@@H](CCCCN)C(=O)N[C@@H](Cc3c[nH]c4ccccc34)C(=O)N[C@@H](CCCC)C(=O)N[C@@H](Cc3c[nH]c4ccccc34)C(=O)N[C@@H]([C@@H](C)O)C(=O)N[C@H]3CSSC[C@H](NC(=O)[C@H](CCC(=O)O)NC(=O)[C@H](CC(C)C)NC(=O)CNC1=O)C(=O)N[C@@H](CCCCN)C(=O)N[C@@H](CC(C)C)C(=O)N[C@@H](Cc1c[nH]c4ccccc14)C(=O)N[C@H](C(=O)N[C@@H](CCCNC(=N)N)C(=O)N[C@@H](CCCCN)C(=O)N[C@H](C(=O)N[C@H](C(N)=O)[C@@H](C)CC)[C@@H](C)CC)CSSC[C@H](NC(=O)[C@H](C)NC(=O)[C@H](CCCNC(=N)N)NC(=O)[C@H](CCCCN)NC(=O)[C@H](CO)NC(=O)[C@H](CC(=O)O)NC3=O)C(=O)N2` [compound 346]: the pIC50 was 8.00 on hNav1.7 (tonic block), 5.99 on hNav1.5 (tonic block) and 6.54 at hNav1.4 (tonic block). The Nav1.4/Nav1.7 at hNav1.4 (ratio of PX tonic IC50 values) is listed as 29.
In the case of `CC[C@H](C)[C@H](NC(=O)[C@@H](NC(=O)[C@H](CCCCN)NC(=O)[C@H](CCCNC(=N)N)NC(=O)[C@@H]1CSSC[C@@H]2NC(=O)[C@H](C)NC(=O)[C@H](CCCNC(=N)N)NC(=O)[C@H](CCCCN)NC(=O)[C@H](CO)NC(=O)[C@H](CC(=O)O)NC(=O)[C@@H]3CSSC[C@H](NC(=O)[C@H](C)NC(=O)[C@H](CC(C)C)NC(=O)CNC(=O)[C@H](CCC(=O)O)NC(=O)[C@H](CSSC[C@H](NC(=O)[C@@H](N)Cc4ccc(O)cc4)C(=O)N[C@@H](CCC(N)=O)C(=O)N[C@@H](CCCCN)C(=O)N[C@@H](Cc4c[nH]c5ccccc45)C(=O)N[C@@H](CCSC)C(=O)N[C@@H](Cc4c[nH]c5ccccc45)C(=O)N[C@@H]([C@@H](C)O)C(=O)N3)NC2=O)C(=O)N[C@@H](CCCCN)C(=O)N[C@@H](CC(C)C)C(=O)N[C@@H](Cc2c[nH]c3ccccc23)C(=O)N1)[C@@H](C)CC)C(N)=O` [compound 17], the negative-log IC50 (pIC50) on hNav1.7 (setting [1]) was 7.92; at hNav1.5 (setting [1]), 5.56; on hNav1.4 (setting [1]), 7.00. Further, at hNav1.4 (ratio of PX IC50 values), the Nav1.4/Nav1.7 is recorded as 8.
Turning to `CCCC[C@@H]1NC(=O)[C@H](Cc2c[nH]c3ccccc23)NC(=O)[C@H](CCCCN)NC(=O)[C@H](CCC(N)=O)NC(=O)[C@@H](NC(=O)[C@H](Cc2ccc(O)cc2)NC(=O)[C@@H](N)CC#N)CSSC[C@@H]2NC(=O)[C@@H]3CSSC[C@@H](C(=O)N[C@@H](CCCNC(=N)N)C(=O)N[C@@H](CCCCN)C(=O)N[C@@H](CCC(=O)O)C(=O)N[C@H](C(N)=O)[C@@H](C)CC)NC(=O)[C@H](Cc4c[nH]c5ccccc45)NC(=O)[C@H](CC(C)C)NC(=O)[C@H](CCCCN)NC(=O)[C@H](CSSC[C@H](NC(=O)[C@H]([C@@H](C)O)NC(=O)[C@H](Cc4c[nH]c5ccccc45)NC1=O)C(=O)N[C@@H](CC(=O)O)C(=O)N[C@@H](CO)C(=O)N[C@@H](CCCCN)C(=O)N[C@@H](CCCNC(=N)N)C(=O)N[C@@H](C)C(=O)N3)NC(=O)[C@H](CCCNC(=N)N)NC(=O)[C@H](CC(C)C)NC(=O)CNC(=O)[C@H](Cc1cn(CCCOCCOCCOCCOCCOCCOCCOCCOCCOCCOCCN)nn1)NC2=O` [compound 443], the pIC50 on hNav1.7 (setting [1]) was 8.25; on hNav1.5 (setting [1]), 5.88; at hNav1.4 (setting [1]) it was 6.76.
On to `C#CC[C@@H]1NC(=O)[C@H](CCCNC(=N)N)NC(=O)[C@H](CCCCN)NC(=O)[C@H](CO)NC(=O)[C@H](CC(=O)O)NC(=O)[C@@H]2CSSC[C@@H]3NC(=O)[C@H](CCC(=O)O)NC(=O)[C@H](CC(C)C)NC(=O)CNC(=O)[C@H](CCC(=O)O)NC(=O)[C@H](CSSC[C@H](NC(=O)[C@@H](N)Cc4ccc(O)cc4)C(=O)N[C@@H](CCC(N)=O)C(=O)N[C@@H](CCCCN)C(=O)N[C@@H](Cc4c[nH]c5ccccc45)C(=O)N[C@@H](CCCC)C(=O)N[C@@H](Cc4c[nH]c5ccccc45)C(=O)N[C@@H]([C@@H](C)O)C(=O)N2)NC(=O)[C@H](CSSC[C@@H](C(=O)N[C@@H](CCCNC(=N)N)C(=O)N[C@@H](CCCCN)C(=O)N[C@H](C(=O)N[C@H](C(N)=O)[C@@H](C)CC)[C@@H](C)CC)NC(=O)[C@H](Cc2c[nH]c4ccccc24)NC(=O)[C@H](CC(C)C)NC(=O)[C@H](CCCCN)NC3=O)NC1=O` [compound 345], for which the negative logarithm of the IC50 (pIC50) at hNav1.7 (tonic block) was 8.14; at hNav1.5 (tonic block), 5.34; on hNav1.4 (tonic block), 5.78.
`CCCC[C@@H]1NC(=O)[C@H](Cc2c[nH]c3ccccc23)NC(=O)[C@H](CCCCN)NC(=O)[C@H](CCC(N)=O)NC(=O)[C@@H](NC(=O)[C@H](Cc2ccc(O)cc2)NC(=O)CCN)CSSC[C@@H]2NC(=O)[C@@H]3CSSC[C@@H](C(=O)N[C@@H](CCCNC(=N)N)C(=O)N[C@@H](CCCCN)C(=O)N[C@H](C(=O)N[C@H](C(N)=O)[C@@H](C)CC)[C@@H](C)CC)NC(=O)[C@H](Cc4c[nH]c5ccccc45)NC(=O)[C@H](CC(C)C)NC(=O)[C@H](CCCCN)NC(=O)[C@H](CSSC[C@H](NC(=O)[C@H]([C@@H](C)O)NC(=O)[C@H](Cc4c[nH]c5ccccc45)NC1=O)C(=O)N[C@@H](CC(=O)O)C(=O)N[C@@H](CO)C(=O)N[C@@H](CCCCN)C(=O)N[C@@H](CCCNC(=N)N)C(=O)N[C@@H](C)C(=O)N3)NC(=O)[C@H](CCCNC(=N)N)NC(=O)[C@H](CC(C)C)NC(=O)CNC(=O)[C@H](CCC(=O)O)NC2=O` [compound 376]: the pIC50 is 9.02 on hNav1.7 (setting [1]), 6.15 at hNav1.5 (setting [1]) and 8.49 at hNav1.4 (setting [1]). Besides, the Nav1.4/Nav1.7 on hNav1.4 (ratio of PX IC50 values) was found to be 3.
With `C#CC[C@H](N)C(=O)N[C@@H](Cc1ccc(O)cc1)C(=O)N[C@H]1CSSC[C@@H]2NC(=O)[C@@H]3CSSC[C@@H](C(=O)N[C@@H](CCCNC(=N)N)C(=O)N[C@@H](CCCCN)C(=O)N[C@@H](Cc4ccc(O)cc4)C(=O)N[C@H](C(N)=O)[C@@H](C)CC)NC(=O)[C@H](Cc4c[nH]c5ccccc45)NC(=O)[C@H](CC(C)C)NC(=O)[C@H](CCCCN)NC(=O)[C@H](CSSC[C@H](NC(=O)[C@H]([C@@H](C)O)NC(=O)[C@H](Cc4c[nH]c5ccccc45)NC(=O)[C@H](CCCC)NC(=O)[C@H](Cc4c[nH]c5ccccc45)NC(=O)[C@H](CCCCN)NC(=O)[C@H](CCC(N)=O)NC1=O)C(=O)N[C@@H](CC(=O)O)C(=O)N[C@@H](CO)C(=O)N[C@@H](CCCCN)C(=O)N[C@@H](CCCNC(=N)N)C(=O)N[C@@H](C)C(=O)N3)NC(=O)[C@H](CCC(=O)O)NC(=O)[C@H](CC(C)C)NC(=O)CNC(=O)[C@H](CCC(=O)O)NC2=O` [compound 313], the results for the pIC50 on hNav1.7 (tonic block), on hNav1.5 (tonic block) and on hNav1.4 (tonic block) were 9.37, 5.36 and 6.02, respectively.
`C#CC[C@H](N)C(=O)N[C@@H](Cc1ccc(O)cc1)C(=O)N[C@H]1CSSC[C@@H]2NC(=O)[C@@H]3CSSC[C@@H](C(=O)N[C@@H](CCCNC(=N)N)C(=O)N[C@@H](CCCCN)C(=O)N[C@H](C(=O)N[C@@H](Cc4c[nH]c5ccccc45)C(N)=O)[C@@H](C)CC)NC(=O)[C@H](Cc4c[nH]c5ccccc45)NC(=O)[C@H](CC(C)C)NC(=O)[C@H](CCCCN)NC(=O)[C@H](CSSC[C@H](NC(=O)[C@H]([C@@H](C)O)NC(=O)[C@H](Cc4c[nH]c5ccccc45)NC(=O)[C@H](CC(C)C)NC(=O)[C@H](Cc4c[nH]c5ccccc45)NC(=O)[C@H](CCCCN)NC(=O)[C@H](CCC(N)=O)NC1=O)C(=O)N[C@@H](CC(=O)O)C(=O)N[C@@H](CO)C(=O)N[C@@H](CCCCN)C(=O)N[C@@H](CCCNC(=N)N)C(=O)N[C@@H](C)C(=O)N3)NC(=O)[C@H](CCC(=O)O)NC(=O)[C@H](CC(C)C)NC(=O)CNC(=O)[C@H](CCC(=O)O)NC2=O` [compound 299]: the values for the pIC50 at hNav1.7 (tonic block), at hNav1.5 (tonic block) and at hNav1.4 (tonic block) were 9.24, 5.88 and 5.93, respectively.
Take `C#CC[C@H](N)C(=O)N[C@@H](Cc1ccc(O)cc1)C(=O)N[C@H]1CSSC[C@@H]2NC(=O)[C@@H]3CSSC[C@@H](C(=O)N[C@@H](CCCNC(=N)N)C(=O)N[C@@H](CCCCN)C(=O)N[C@@H](CCC(=O)O)C(=O)N[C@H](C(N)=O)[C@@H](C)CC)NC(=O)[C@H](Cc4c[nH]c5ccccc45)NC(=O)[C@H](CC(C)C)NC(=O)[C@H](CCCCN)NC(=O)[C@H](CSSC[C@H](NC(=O)[C@H]([C@@H](C)O)NC(=O)[C@H](Cc4c[nH]c5ccccc45)NC(=O)[C@H](CCCC)NC(=O)[C@H](Cc4c[nH]c5ccccc45)NC(=O)[C@H](CCCCN)NC(=O)[C@H](CCC(N)=O)NC1=O)C(=O)N[C@@H](CC(=O)O)C(=O)N[C@@H](CO)C(=O)N[C@@H](CCCCN)C(=O)N[C@@H](CCCNC(=N)N)C(=O)N[C@@H](C)C(=O)N3)NC(=O)[C@H](CCCNC(=N)N)NC(=O)[C@H](CC(C)C)NC(=O)CNC(=O)[C@H](CCC(=O)O)NC2=O` [compound 328]: the values for the negative-log IC50 (pIC50) on hNav1.7 (tonic block), on hNav1.5 (tonic block) and on hNav1.4 (tonic block) were 9.29, 5.52 and 6.89, respectively.
